Results as given in PMC10081362 (Research Square, 2023).

How the values were obtained:
[1] = molecular target: T1, OXTR (Homo sapiens, UniProt P30559); assay: Calcium flux fluorescence assay (FLUO-8) in CHO-K1 cells stably expressing OXTR; type: cell-based
T1 construct: host or cells: CHO-K1, stably transfected
T1 sequence (P30559 1-389): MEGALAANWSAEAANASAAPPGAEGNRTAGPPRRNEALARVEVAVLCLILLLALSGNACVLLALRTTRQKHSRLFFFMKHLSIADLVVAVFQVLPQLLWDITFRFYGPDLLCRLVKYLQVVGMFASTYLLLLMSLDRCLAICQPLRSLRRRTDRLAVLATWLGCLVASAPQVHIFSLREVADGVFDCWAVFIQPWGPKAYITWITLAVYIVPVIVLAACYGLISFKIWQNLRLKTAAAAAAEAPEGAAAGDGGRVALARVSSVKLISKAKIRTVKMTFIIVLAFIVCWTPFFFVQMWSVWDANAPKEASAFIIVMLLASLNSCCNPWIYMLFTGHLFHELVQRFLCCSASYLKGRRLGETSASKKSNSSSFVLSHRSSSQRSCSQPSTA
Experimental: Stably transfected CHO-K1 cell lines overexpressing OXTR or V1a were obtained from Dr. Bryan Roth via the National Institute of Mental Health (NIMH) Psychoactive Drug Screening Program. The cells were cultured and maintained in Hams F12 medium (Gibco, Waltham, MA) supplemented with 400 μg/ml G418 (Gibco, Waltham, MA), 10% heat-inactivated FBS (Gibco, Waltham, MA), 15 mM HEPES (Gibco, Waltham, MA), 100 units ml^−1 of penicillin, 100 μg ml^−1 of streptomycin. The cells were grown in an atmosphere of 37°C and 8% CO2 and were passaged following trypsinization with Trypsin-LE (Gibco, Waltham, MA). CHO-K1 cells overexpressing OXTR were seeded overnight at 50,000 cells/100 μL/well in a black wall/clear bottom 96-well plate pretreated with poly-lysine (Gibco, Waltham, MA). […] The calcium flux assay was carried out on a FlexStation 3 Microplate Reader (Molecular Devices, San Jose, CA).

[2] = UV-Vis absorption spectra upon 365 nm irradiation; type: physicochemical; conditions: 365 nm LED, 3 mW; 20 μM, 1% DMSO/PBS; absorption spectrum unchanged
Experimental: All measurements were performed in the dark or under red light. Samples were stored at −20 °C. UV-Vis spectroscopy was performed using a Cary 60 UV-Vis Spectrophotometer equipped with a PCB 1500 High-Performance Peltier thermostat (Agilent Technologies, Santa Clara, CA). Samples were measured using ultra-micro cuvettes with a 10 mm light path (BrandTech, Essex, CT). Irradiation was performed using an Optoscan Monochromator equipped with an Optosource High-Intensity Arc Lamp (Cairn Research, Kent, UK) set to 15 nm full width at half maximum and installed with a 75 W UXL-S50A xenon arc lamp (USHIO, Tokyo, JP). The light source was set to 365 nm, and the power output was measured at the sample position using a PM100D compact power and energy meter console and S120VC Si photodiode sensor (Thorlabs, Newton, NJ). A constant 3 mW power output at 365 nm was maintained throughout the experiments. The monochromator was controlled using a custom MATLAB program, and data were analyzed and plotted using Prism 8 (GraphPad, San Diego, CA).
For measuring the UV-visible absorption spectra, we prepared a […] DMSO stock solution of each respective compound, diluted to 20 μM (1% DMSO in PBS). A sample (1 mL) of the solution (20 μM) was transferred to a cuvette and measured by under ambient conditions (24 °C). […]

[3] = test system: mammary tissue from lactating GCaMP6f∷K5CreERT2 mice; assay: Ex vivo three-dimensional time-lapse imaging of lactating mammary tissue; type: cell-based, mouse; conditions: 85 nM oxytocin in bath
Experimental: Mammary glands were harvested from lactating GCaMP6f;K5CreERT2 mice diced into 3- to 4- mm^3 pieces and loaded with CellTracker Red (1.5 μM, ThermoFisher C34552, ThermoFisher, Waltham, MA) for at least 30 minutes in DMEM/F12 containing 10% FCS. Under these conditions, CellTracker preferentially labels luminal cells. […] Samples were imaged on a Leica TCS SP8 inverted microscope (Leica, Germany) with 20× 0.75NA HC PL APO CS2 objective. For uncaging, a region of interest (ROI) was targeted with a 405 nm laser at 100% laser power for 3s each trial. […] Protocol for image processing and analysis was previously reported in (Stevenson et al., 2020)[48].

[4] = test system: OXTR+ neurons in the auditory cortex; type: cell-based, mouse
Experimental: In vitro recordings were performed in acute slices of the auditory cortex prepared from male and female 2–5 month old OXTRcre∷Ai9 mice. Mice were deeply anesthetized with 5% isoflurane and perfused transcardially with ice-cold dissection buffer containing (in mM): 87 NaCl, 75 sucrose, 2.5 KCl, 1.25 NaH2PO4, 0.5 CaCl2, 7 MgCl2, 25 NaHCO3, 1.3 ascorbic acid, and 10 D-glucose, bubbled with 95%/5% O2/CO2 (pH 7.4). Following perfusion and decapitation, brains were removed and placed in the cold buffer solution, and slices (250–300 μm thick) were prepared with a vibratome (Leica P-1000). Slices were placed in warm artificial cerebrospinal fluid (ACSF, in mM: 124 NaCl, 2.5 KCl, 1.5 MgSO4, 1.25 NaH2PO4, 2.5 CaCl2, and 26 NaHCO3) (33–35 °C) for <30 minutes, then cooled to room temperature (22–24 °C) for at least 30 minutes before use. Slices were transferred to the recording chamber and superfused (2.5–3 ml min^−1) with oxygenated ACSF at 33 °C. Whole-cell current-clamp recordings were made from layer 2/3 pyramidal cells with a Multiclamp 200B or 700B amplifier (Molecular Devices, San Diego). Cortical regions and layers were identified using IR video microscopy (Olympus, Japan), and OXTR-positive neurons were identified based on expression of tdTomato, visualized with an Olympus 40 × water- immersion objective with TRITC filter. […]

[5] = molecular target: T1, OXTR; assay: Radioligand competitive binding assay (NIMH PDSP)
Experimental: Radioligand binding assays were carried out by the (NIMH) Psychoactive Drug Screening Program[61]. The detailed experimental protocols for the radioligand assay are available on the NIMH PDSP website at http://pdsp.med.unc.edu/UNC-CH%20Protocol%20Book.pdf. […] Binding data were analyzed and plotted using Prism 8 (GraphPad, San Diego, CA).

| SMILES | activation of OXTR+ cells in presence of OXTR antagonist OTA ([1]; 1 μM agonist with 10 μM OTA, after photolysis with 365 nm LED, Fig. 2e) | fluorescence (calcium flux) ([1]; oxytocin 1 μM, Fig. 2d, normalized to maximal response produced by oxytocin, mean ± SEM, n=5 wells) | duration of stability towards 365 nm irradiation [2] | calcium and contraction response to whole-tissue wash on [3] | peak depolarization of OXTR+ neurons ([4]; 1 μM oxytocin wash-on, or cOT1 wash-in and 365 nm light pulsed at 20 Hz, Fig. 4k) | IC50 [5] [µM] | toxic effects on neurons in slices [4] |
| --- | --- | --- | --- | --- | --- | --- | --- |
| CC[C@H](C)[C@@H]1NC(=O)[C@H](Cc2ccc(O)cc2)NC(=O)[C@@H](N)CSSC[C@@H](C(=O)N2CCC[C@H]2C(=O)N[C@@H](CC(C)C)C(=O)NCC(N)=O)NC(=O)[C@H](CC(N)=O)NC(=O)[C@H](CCC(N)=O)NC1=O [oxytocin] | failed to activate | 142.4±1.8 | at least 30 minutes | increase in intracellular calcium, followed by cell and alveolar contraction across all cells | significant membrane depolarization |  |  |
| CC[C@H](C)[C@@H]1NC(=O)[C@H](Cc2ccc(OCc3ccccc3[N+](=O)[O-])cc2)NC(=O)[C@@H](N)CSSC[C@@H](C(=O)N2CCC[C@H]2C(=O)N[C@@H](CC(C)C)C(=O)NCC(N)=O)NC(=O)[C@H](CC(N)=O)NC(=O)[C@H](CCC(N)=O)NC1=O [cOT1] |  |  |  |  |  | 2.01 | without apparent toxic effects |
